pIC50: −log10 of the molar value. Read-outs that look alike come from different tables or passages of the source.
Tests used:
[1] = design: method as in PMID 26493053; conditions: at 120 min; cited from earlier work
[2] = system: U87MG-Luc2 human glioblastoma tumor xenografts; assay: ex vivo biodistribution in subcutaneous U87MG-Luc2 glioblastoma bearing nude mice; design: species or system mouse
Procedure: Following successful optimization of the radiochemistry, the behavior of [^18F]20 was investigated in vivo in mice bearing subcutaneous U87MG-Luc2 human glioblastoma tumor xenografts using ex vivo biodistribution and PET–MR imaging techniques. Ex vivo biodistribution of [^18F]20 was established at 30, 60, and 120 min after intravenous radiotracer administration, and PET data were acquired by performing a 45 min dynamic scan. […] This is in contrast to observations made by Carney et al., who reported <2%ID/g of bone of [^18F]8 at 120 min.[34] The high bone uptake seen with [^18F]20 could be explained by in vivo defluorination and subsequent radiofluoride accumulation in bone tissue.[35] Despite this, apparent radiotracer tumor uptake was identified in both biodistribution and PET–MR imaging experiments (Figures 3a,c), whereas in the case of the former, the mean ratio of %ID/g of glioblastoma tumor to muscle increased from 1.9 ± 0.5 (n = 4) to 3.6 ± 0.5 (n = 4) between the 30 and 120 min time points.
(§1) U87MG-Luc2 glioblastoma cell culture and implantation procedures were performed as reported previously.[19] Briefly, U87MG-Luc2 cells were purchased commercially from ATCC and cultured in minimum essential media that has been supplemented with 10% w/v fetal calf serum and 2 mM L-glutamine at 37 °C and 5% v/v CO2. Unconscious female CD1 nude mice (6–11 week old; purchased from Charles River Laboratories) had 5 × 10^6 U87MG-Luc2 cells injected subcutaneously into the right flank. The resulting tumor xenografts were measured and monitored visually every 3 days, and tumor-bearing animals were used for in vivo studies 28–30 days post-implantation.
(§2) Subcutaneous tumor bearing mice were administered 1.8–2.6 MBq of [^18F]20 in 0.11–0.21 mL of 5% v/v DMSO in 0.9% saline via bolus tail-vein injections. The remainder of the experiment was conducted as described previously.[19]

[3] = molecular target: T1, PARP in U87MG-Luc2 human glioblastoma xenografts (Homo sapiens, UniProt P09874); assay: ex vivo biodistribution with preblockade by nonradioactive 1; assay type: in vivo, mouse
T1 construct: from tissue; host or cells: subcutaneous U87MG-Luc2 human glioblastoma xenograft in female CD1 nude mice
Procedure: To establish the specificity of [^18F]20 for PARP in bone and tumor tissue, further biodistribution studies were performed on subcutaneous U87MG-Luc2 glioblastoma bearing mice that had PARP binding sites blocked by pretreatment with nonradioactive compound 1 at a dose of 50 mg/kg 20 min prior to [^18F]20 administration. […] This supports the earlier proposed possibility of in vivo [^18F]20 defluorination, leading to free radiofluoride accumulation in the bone.
as §1, §2

[4] = intrinsic clearance in human liver microsomes; assay type: in vitro ADME; conditions: for microsomal CLint: human, liver microsomes
Text: (§3) However, these were still within the optimal range for a nuclear imaging agent. […] Collectively, the optimal physiochemical properties and low nanomolar PARP cell-free and cellular IC50 values supported further investigation of 20 as a potential radiotracer for PARP. In the body, radiotracers can be exposed to a number of metabolic pathways, including blood plasma hydrolysis and liver functionalization or conjugation reactions that can have a significant effect on the kinetic properties of the tracer and, subsequently its usefulness in nuclear imaging. With this in mind, the in vitro plasma and liver microsome stability of lead candidate 20 were established by incubating the compound in mouse plasma proteins and human liver microsome enzymes, respectively, using previously described methodologies.[19]

[5] = lipophilicity (log Poct) by C-18 reverse-phase HPLC; assay type: physicochemical; conditions: C-18 reverse-phase HPLC column
[6] = molecular target: human serum albumin (Homo sapiens, UniProt P02768); assay: percentage plasma protein binding by human serum albumin coated HPLC column; assay type: in vitro ADME; conditions: for fraction unbound: human, read-out: %PPB (converted)
[7] = molecular target: PARP-1 (Homo sapiens, UniProt P09874); assay: cell-free PARP-1 IC50 assay (colorimetric dose-response)
[8] = mouse plasma stability; assay type: in vitro ADME
Text: as §3

[9] = experiment 1, read-out: Clint, experiment 1
[10] = experiment 2, read-out: Clint, experiment 2

human serum albumin, sequence (P02768 25-609): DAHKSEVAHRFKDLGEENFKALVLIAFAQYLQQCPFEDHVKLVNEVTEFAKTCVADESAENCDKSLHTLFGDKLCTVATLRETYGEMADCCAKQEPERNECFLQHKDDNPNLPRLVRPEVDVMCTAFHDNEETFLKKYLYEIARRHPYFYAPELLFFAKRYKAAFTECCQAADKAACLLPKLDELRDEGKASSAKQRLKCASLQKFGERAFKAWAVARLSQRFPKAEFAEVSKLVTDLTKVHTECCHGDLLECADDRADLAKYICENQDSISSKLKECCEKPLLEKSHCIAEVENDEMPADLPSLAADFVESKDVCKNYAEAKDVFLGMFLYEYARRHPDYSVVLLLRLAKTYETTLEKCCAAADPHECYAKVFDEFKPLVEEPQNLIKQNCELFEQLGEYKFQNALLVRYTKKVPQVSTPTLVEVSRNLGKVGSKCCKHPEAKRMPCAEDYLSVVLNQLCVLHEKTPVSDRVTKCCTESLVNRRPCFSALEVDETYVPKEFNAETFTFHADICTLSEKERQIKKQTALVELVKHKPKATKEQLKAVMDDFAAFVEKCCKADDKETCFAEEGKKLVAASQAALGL
T1 sequence (P09874 whole entry): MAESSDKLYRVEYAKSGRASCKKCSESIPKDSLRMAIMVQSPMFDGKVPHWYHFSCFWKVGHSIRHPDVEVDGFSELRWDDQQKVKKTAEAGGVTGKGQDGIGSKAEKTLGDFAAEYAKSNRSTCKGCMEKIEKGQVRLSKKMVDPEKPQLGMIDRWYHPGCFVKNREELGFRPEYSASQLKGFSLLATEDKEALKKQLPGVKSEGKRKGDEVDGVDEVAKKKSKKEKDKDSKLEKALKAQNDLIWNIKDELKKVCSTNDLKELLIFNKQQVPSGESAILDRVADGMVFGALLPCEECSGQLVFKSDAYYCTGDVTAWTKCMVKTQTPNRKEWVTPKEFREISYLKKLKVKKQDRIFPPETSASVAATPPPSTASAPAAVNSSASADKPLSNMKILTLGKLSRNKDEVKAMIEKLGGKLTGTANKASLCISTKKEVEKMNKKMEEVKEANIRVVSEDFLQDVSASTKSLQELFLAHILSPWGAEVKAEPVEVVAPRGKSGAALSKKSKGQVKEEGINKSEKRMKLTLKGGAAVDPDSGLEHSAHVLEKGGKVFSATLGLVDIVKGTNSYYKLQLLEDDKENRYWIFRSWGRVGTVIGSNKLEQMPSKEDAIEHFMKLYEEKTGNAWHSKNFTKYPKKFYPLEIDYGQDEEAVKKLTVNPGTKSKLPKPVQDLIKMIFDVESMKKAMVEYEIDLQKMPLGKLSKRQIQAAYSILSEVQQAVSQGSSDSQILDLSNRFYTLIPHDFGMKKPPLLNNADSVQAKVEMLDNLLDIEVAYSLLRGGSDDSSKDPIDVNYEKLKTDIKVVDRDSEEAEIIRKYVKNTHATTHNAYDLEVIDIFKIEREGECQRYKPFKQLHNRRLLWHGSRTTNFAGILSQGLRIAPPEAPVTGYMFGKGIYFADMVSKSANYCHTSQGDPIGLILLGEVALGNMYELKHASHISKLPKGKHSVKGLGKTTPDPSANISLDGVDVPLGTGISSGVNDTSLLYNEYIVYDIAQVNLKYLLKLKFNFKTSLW
PARP-1, sequence (P09874 whole entry, species assumed): as the sequence (P09874 whole entry) above

SMILES	chromatographic logP [5]	fraction unbound [6]	pIC50 [7]	further results
O=C(c1ccc([18F])cc1)N1CCN(C(=O)c2cc(Cc3n[nH]c(=O)c4ccccc34)ccc2F)CC1 [[^18F]8]				%ID/g of bone [1]: < 2 %ID/g
O=C(c1ccc(C[18F])cc1)N1CCN(C(=O)c2cc(Cc3n[nH]c(=O)c4ccccc34)ccc2F)CC1 [[^18F]20]				mean ratio of %ID/g of glioblastoma tumor to muscle, 30 min ([2]; 30 min after intravenous injection, n = 4): 1.9 ± 0.5; mean ratio of %ID/g of glioblastoma tumor to muscle, 120 min ([2]; 120 min after intravenous injection, n = 4): 3.6 ± 0.5; mean percentage of injected dose per gram (%ID/g) of femur tissue ([2]; across 30, 60 and 120 min after intravenous tracer administration): > 8.5%; ratio of %ID/g of tumor to muscle, preblockade using 1 ([3]; 60 min after [18F]20 administration, 50 mg/kg of 1 given 20 min prior, P < 0.05 vs vehicle): 1.07 ± 0.15; ratio of %ID/g of tumor to muscle, vehicle-pretreated mice ([3]; 60 min after [18F]20 administration, vehicle pretreatment): 1.79 ± 0.39; uptake in bone tissue in presence of excess nonradioactive 1 ([3]; 60 min after radioligand administration, 50 mg/kg of 1 pretreatment): not influenced
O=C(c1cc(Cc2n[nH]c(=O)c3ccccc23)ccc1F)N1CCN(C(=O)C2CC2)CC1 [compound 1, olaparib, reference compound]	1.95			microsomal CLint [4, 9]: 23 µL/min/mg; microsomal CLint [4, 10]: 34 µL/min/mg; %PPB [6]: 75.9%
O=C(c1ccc(F)cc1)N1CCN(C(=O)c2cc(Cc3n[nH]c(=O)c4ccccc34)ccc2F)CC1 [compound 8, 4-[3′-[4″-(4‴-Fluorobenzoyl)piperazine-1″-carbonyl]-4′-fluorobenzyl]-2H-phthalazin-1-one]	2.51	0.141		
O=C(c1ccccc1F)N1CCN(C(=O)c2cc(Cc3n[nH]c(=O)c4ccccc34)ccc2F)CC1 [compound 9, 4-[3′-[4″-(2‴-Fluorobenzoyl)piperazine-1″-carbonyl]-4′-fluorobenzyl]-2H-phthalazin-1-one]	2.46	0.136	8.44	
Cc1cc(F)ccc1C(=O)N1CCN(C(=O)c2cc(Cc3n[nH]c(=O)c4ccccc34)ccc2F)CC1 [compound 10, 4-[3′-[4″-(4‴-Fluoro-2‴-methylbenzoyl)piperazine-1″-carbonyl]-4′-fluorobenzyl]-2H-phthalazin-1-one]	2.66	0.139	8.54	
O=C(Cc1ccc(F)cc1)N1CCN(C(=O)c2cc(Cc3n[nH]c(=O)c4ccccc34)ccc2F)CC1 [compound 11, 4-[3′-[4″-[(4‴-Fluorophenyl)acetyl]piperazine-1″-carbonyl]-4′-fluorobenzyl]-2H-phthalazin-1-one]	2.67	0.101	8.89	
O=C(CCC(=O)N1CCN(C(=O)c2cc(Cc3n[nH]c(=O)c4ccccc34)ccc2F)CC1)c1ccc(F)cc1 [compound 12, 4-[3′-[4′′′′′-[(4‴-Fluorophenyl)butane-1′′′′,4′′′′-dione]-piperazine-1‴-carbonyl]4″-fluorobenzyl]-2H-phthalazin-1-one]	2.81	0.094	8.39	
O=C(c1cc(Cc2n[nH]c(=O)c3ccccc23)ccc1F)N1CCN(Cc2ccc(F)cc2)CC1 [compound 13, 4-[3′-[4″-(4‴-Fluorobenzyl)piperazine-1″-carbonyl]-4′-fluorobenzyl]-2H-phthalazin-1-one]	3.14	0.053	7.95	
O=C(c1ccc(CF)cc1)N1CCN(C(=O)c2cc(Cc3n[nH]c(=O)c4ccccc34)ccc2F)CC1 [compound 20]	2.51	0.107	8.70	stability in mouse plasma ([8]; 20 h incubation in mouse plasma): negligible decomposition; plasma stability, 20 h ([8]; mean percentage of parent compound remaining after 20 h incubation in mouse plasma): 95%; plasma stability, 0 h ([8]; mean percentage of parent compound remaining, mouse plasma, 0 h): 93%; cell-free IC50 fold less than that of 1 ([7]; compared with 1): 6 fold; cell-free IC50 fold less than that of 8 ([7]; compared with 8): 3 fold; intrinsic clearance fold greater in comparison to 1 ([4]; compared with 1): approximately 3 fold; microsomal CLint [4, 9]: 74 µL/min/mg; microsomal CLint [4, 10]: 90 µL/min/mg
